In article PMC7318646 (Chemmedchem, 2020):

Key:
HSA [1] = molecular target: T1, HSA (Homo sapiens, UniProt P02768); test: Three-dye; type: binding; conditions: three dyes 8 μM each on HSA 25 μM
HSA [2] = molecular target: T1, HSA; test: switchSENSE molecular dynamics mode; conditions: compound concentration tenfold higher than KD

T1 sequence (P02768 25-609): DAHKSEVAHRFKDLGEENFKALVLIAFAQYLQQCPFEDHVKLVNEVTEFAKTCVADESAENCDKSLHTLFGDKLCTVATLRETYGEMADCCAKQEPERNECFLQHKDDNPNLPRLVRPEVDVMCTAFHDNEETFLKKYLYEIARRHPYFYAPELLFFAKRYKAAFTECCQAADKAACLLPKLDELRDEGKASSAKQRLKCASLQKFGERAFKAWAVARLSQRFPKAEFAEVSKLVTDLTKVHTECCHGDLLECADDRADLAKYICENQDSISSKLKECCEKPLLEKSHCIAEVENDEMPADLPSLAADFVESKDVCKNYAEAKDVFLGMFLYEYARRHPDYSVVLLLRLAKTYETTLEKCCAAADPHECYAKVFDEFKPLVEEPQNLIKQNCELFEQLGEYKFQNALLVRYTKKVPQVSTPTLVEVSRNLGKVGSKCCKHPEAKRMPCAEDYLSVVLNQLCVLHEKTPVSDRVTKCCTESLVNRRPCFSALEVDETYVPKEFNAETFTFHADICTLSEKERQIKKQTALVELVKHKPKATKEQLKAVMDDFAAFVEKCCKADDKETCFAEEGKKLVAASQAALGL

| displacement of dimethylamino-BODIPY 5 a (Sudlow-site II probe) (HSA [1]) | displacement of warfarin derivative 8 a (Sudlow-site I probe) (HSA [1]) | displacement of NBD-FA (fatty acid binding site probe) (HSA [1]) | conformational change of HSA upon binding (molecular dynamics mode) (HSA [2]) | Compound |
| --- | --- | --- | --- | --- |
| competitive | competitive |  |  | CCC(Cc1c(I)cc(I)c(O)c1I)C(=O)O (stereo not drawn) [Iophenoxic acid, iophenoxic acid] |
| same behavior | same behavior | same behavior |  | O=C(O)CCNC(=O)c1ccc(/N=N/c2ccc(O)c(C(=O)O)c2)cc1 [balsalazide] |
|  |  |  | significant expansion | (7‐nitrobenz‐2‐oxa‐1,3‐diazol‐4‐yl)‐C12 fatty acid [NBD‐FA] |
